The values below come from patent publication US9884821B2, “N1-cyclic amine-N5-substituted biguanide derivatives, methods of preparing the same and pharmaceutical composition comprising the same” (IMMUNOMET THERAPEUTICS INC., priority 2013, dated 2018).

One experiment concerns AMPK. Briefly: AMPK activation effect (AMPK [pT172] ELISA) in MCF7 cells. It counts as cell-based, human. To be noted: 24 hours; for AMPK activation effect (%) 10 μM / AMPK activation effect (%) 50 μM: AMPKα Thr172 phosphorylation relative to untreated cells; for AC150: concentration at which AMPK activation reached 150%. The method, then: ELISA kit (Invitrogen, Catalog No. KH00651).
MCF7 cells were cultured in a DMEM medium supplemented with 10% fatal bovine serum (commercially available from Gibco Life Technologies (US)). Thereafter, the cultured MCF7 cells were put into a 6-well plate with approximately 5×10^5 cells per well, and cultured in an incubator supplied with 5% CO2. Culture media were treated with the derivatives synthesized in the Examples at concentrations of 5, 10 and 50 uM, and then cultured for 24 hours. […] Subsequently, the cells were lysed according to a method presented in the operation manual of the AMPK [pT172] ELISA kit, and 20 μg of a cell lysate was then yielded through protein assay. Thereafter, the AMPK activation effect was obtained by determining a degree of phosphorylation of a 172nd threonine residue (Thr172) of the AMPKα from the cell lysate according to the method presented in the operation manual of the AMPK [pT172] ELISA kit.

For a further experiment, the system named is HCT116 cells. Briefly: Effect of inhibiting cancer cell proliferation (MTT) in HCT116 cells. Type of experiment: cell-based, human. The following applies: Homo sapiens, HCT-116, 48 h; for inhibition at 100 µM: read-out: Cell growth inhibition (%) at 100 μM. The text has this:
HCT116 cells derived from human colorectal cancer were used, and an effect of inhibiting cancer cell proliferation of the biguanide derivative was confirmed by measuring a concentration value (cell growth inhibition concentration, GIC50) at which cell growth was inhibited by 50% using a 3-(4,5-dimethylthiazol-2-yl)-2,5-diphenyltetrazolium bromide (MTT) reagent.
First, HCT116 cells (purchased from the KCLB) were put on a 96-well plate and cultured in a DMEM medium supplemented with 10% fatal bovine serum (commercially available from Gibco Life Technologies (US)) for 16 hours so that approximately 5,000 cells were counted in each well. Subsequently, to obtain the GIC50 value of each compound, the culture media were treated with 100 μM, 25 μM, 6.25 μM, 1.56 μM or 0.39 μM of the compound, and then cultured for 48 hours. In order to determine whether the cells survived after treatment with the compounds, MTT (commercially available from AMRESCO (US)) was added to the culture media which were then cultured for another 3 hours. Formed formazane crystals were dissolved using dimethyl sulfoxide (DMSO) and the absorbance of the resulting solution was measured at 560 nm. After the 48-hour culture, a ratio of a living cell count on a well plate treated with the compounds synthesized in the Examples to a cell count cultured on a well plate not treated with the compound was indicated as cell viability (%) according to the concentration of each treated compound. The cell viability (%) was used to plot a cell viability curve graph and calculate a concentration (GIC50) value of the compound at which the growth was inhibited by 50%, thereby confirming the inhibition effect of cancer cell proliferation.

Structures can show the parent of a compound that is named as a salt.

As to `CC1=CCN(C(=N)NC(=N)Nc2cccc(OC(F)(F)F)c2)C1.Cl` [Example 25, N1-(3-methyl)-1,2-dihydropyrrole-N5-(3-trifluoromethoxy)phenyl biguanide hydrochloride], in the experiment on AMPK, the “AMPK activation effect (%) 10 μM” value turned out to be 376% and the AC150 is 2.2 µM. For the same compound, in the experiment with HCT116 cells, the GI50 was determined as 4.9 µM and the inhibition at 100 µM stood at 96.6%.
For `CC1=CCN(C(=N)NC(=N)NCc2ccc(C(F)(F)F)cc2)C1.Cl` [Example 26, N1-(3-methyl)-1,2-dihydropyrrole-N5-(4-trifluoromethyl)benzyl biguanide hydrochloride], in the experiment with AMPK, the “AMPK activation effect (%) 10 μM” value stood at 443%, the “AMPK activation effect (%) 50 μM” value worked out at 358% and the AC150 amounted to 0.68 µM. Further, in the experiment with HCT116 cells, the GI50 worked out at 8.2 µM and the inhibition at 100 µM came to 96.7%.
As for `CC1=CCN(C(=N)NC(=N)NCc2ccc(Cl)c(C(F)(F)F)c2)C1.Cl` [Example 27, N1-(3-methyl)-1,2-dihydropyrrole-N5-(4-chloro, 3-trifluoromethyl)benzyl biguanide hydrochloride], in the experiment with AMPK, the “AMPK activation effect (%) 10 μM” value is 119%, the “AMPK activation effect (%) 50 μM” value amounted to 316% and the AC150 stood at 13.5 µM. In addition, in the experiment on HCT116 cells, the GI50 worked out at 33.5 µM and the inhibition at 100 µM worked out at 96.6%.
As to `Cl.N=C(NC(=N)N1CC=CCC1)Nc1ccc(OC(F)(F)F)cc1` [Example 28, N1-1,2,3,6-tetrahydropyridine-N5-(4-trifluoromethoxy)phenyl biguanide hydrochloride], in the experiment on AMPK, the “AMPK activation effect (%) 10 μM” value is recorded as 732% and the AC150 came to 0.15 µM. Moreover, in the experiment with HCT116 cells, halving of growth (GI50) required 8.4 µM and the inhibition at 100 µM was found to be 100%.
The matching figures for `Cl.N=C(NC(=N)N1CC=CCC1)Nc1ccc(C(F)(F)F)cc1` [Example 29, N1-1,2,3,6-tetrahydropyridine-N5-(4-trifluoromethyl)phenyl biguanide hydrochloride]: 551%, 1.3 µM, 9.5 µM and 100%.
Consider `Cl.N=C(NC(=N)N1CC=CCC1)Nc1cccc(OC(F)(F)F)c1` [Example 30, N1-1,2,3,6-tetrahydropyridine-N5-(3-trifluoromethoxy)phenyl biguanide hydrochloride], for which, in the experiment with AMPK, the “AMPK activation effect (%) 10 μM” value is 703% and the AC150 was 0.53 µM. In addition, in the experiment on HCT116 cells, growth was halved (GI50) at 7.5 µM and the inhibition at 100 µM turned out to be 99.7%.
The like results for `Cl.N=C(NC(=N)N1CC=CCC1)Nc1cccc(C(F)(F)F)c1` [Example 31, N1-1,2,3,6-tetrahydropyridine-N5-(3-trifluoromethyl)phenyl biguanide hydrochloride] were, in that order, 391%, 1.8 µM, 7.8 µM and 99.5%.
On to `Cl.N=C(NC(=N)N1CC=CCC1)Nc1ccc(F)c(C(F)(F)F)c1` [Example 32, N1-1,2,3,6-tetrahydropyridine-N5-(4-fluoro, 3-trifluoromethyl)phenyl biguanide hydrochloride], for which, in the experiment on AMPK, the “AMPK activation effect (%) 10 μM” value stood at 837% and the AC150 worked out at 0.62 µM. In the experiment with HCT116 cells, the concentration for 50% growth inhibition (GI50) amounted to 7.9 µM and the inhibition at 100 µM worked out at 99.4%.
The like results for `Cl.N=C(NC(=N)N1CC=CCC1)Nc1ccc(Cl)c(C(F)(F)F)c1` [Example 33, N1-1,2,3,6-tetrahydropyridine-N5-(4-chloro, 3-trifluoromethyl)phenyl biguanide hydrochloride] were, in that order, 992%, 0.79 µM, 3.7 µM and 99.4%.
The matching figures for `Cl.N=C(NC(=N)N1CC=CCC1)Nc1ccc(OC(F)(F)F)c(F)c1` [Example 34, N1-1,2,3,6-tetrahydropyridine-N5-(3-fluoro, 4-trifluoromethoxy)phenyl biguanide hydrochloride]: 925%, 0.29 µM, 6.6 µM and 99.4%.
The like results for `Cl.N=C(NC(=N)N1CC=CCC1)Nc1ccc(Cl)cc1` [Example 35, N1-1,2,3,6-tetrahydropyridine-N5-(4-chloro)phenyl biguanide hydrochloride] were, in that order, 314%, 2.4 µM, 18.4 µM and 99.1%.
Take `N=C(NC(=N)N1CC=CCC1)Nc1ccc(Br)cc1` [Example 36, N1-1,2,3,6-tetrahydropyridine-N5-(4-bromo)phenyl biguanide hydrochloride]: in the experiment with AMPK, the “AMPK activation effect (%) 10 μM” value is 568% and the AC150 came out at 0.87 µM. Further, in the experiment on HCT116 cells, the GI50 worked out at 11.2 µM and the inhibition at 100 µM was 99%.
In the case of `Cl.N=C(NC(=N)N1CC=CCC1)Nc1ccc(F)cc1` [Example 37, N1-1,2,3,6-tetrahydropyridine-N5-(4-fluoro)phenyl biguanide hydrochloride], in the experiment with AMPK, the “AMPK activation effect (%) 10 μM” value is recorded as 187%, the “AMPK activation effect (%) 50 μM” value is 522% and the AC150 was 4.2 µM. In the experiment on HCT116 cells, the GI50 was found to be 135 µM and the inhibition at 100 µM came to 45.3%.
The matching figures for `COc1cc(NC(=N)NC(=N)N2CC=CCC2)cc(OC)c1.Cl` [Example 38, N1-1,2,3,6-tetrahydropyridine-N5-(3,5-dimethoxy)phenyl biguanide hydrochloride]: 97%, 117%, more than 50 µM, 108 µM and 47.8%.
The like results for `Cl.N=C(NC(=N)N1CC=CCC1)Nc1ccccc1` [Example 39, N1-1,2,3,6-tetrahydropyridine-N5-phenyl biguanide hydrochloride] were, in that order, 96%, 138%, 67.2 µM, 124 µM and 39.8%.
For `COc1ccc(NC(=N)NC(=N)N2CC=CCC2)cc1.Cl` [Example 40, N1-1,2,3,6-tetrahydropyridine-N5-(4-methoxyl)phenyl biguanide hydrochloride], in the experiment with AMPK, the “AMPK activation effect (%) 10 μM” value was 122%, the “AMPK activation effect (%) 50 μM” value is on record as 163% and the AC150 was 37.8 µM. In addition, in the experiment on HCT116 cells, the GI50 is more than 100 µM and the inhibition at 100 µM was found to be 37.4%.
The like results for `COc1cccc(NC(=N)NC(=N)N2CC=CCC2)c1.Cl` [Example 41, N1-1,2,3,6-tetrahydropyridine-N5-(3-methoxyl)phenyl biguanide hydrochloride] were, in that order, 125%, 201%, 22.4 µM, 88.2 µM and 55.9%.
Consider `COc1ccc(NC(=N)NC(=N)N2CC=CC2)cc1.Cl` [Example 42, N1-1,2-dihydropyrrole-N5-(4-methoxyl)phenyl biguanide hydrochloride], for which, in the experiment on AMPK, the “AMPK activation effect (%) 10 μM” value was 157%, the “AMPK activation effect (%) 50 μM” value amounted to 210% and the AC150 stood at 14.7 µM. For the same compound, in the experiment on HCT116 cells, the GI50 is more than 100 µM and the inhibition at 100 µM came to 14%.
The like results for `COc1cccc(NC(=N)NC(=N)N2CC=CC2)c1.Cl` [Example 43, N1-1,2-dihydropyrrole-N5-(3-methoxyl)phenyl biguanide hydrochloride] were, in that order, 200%, 466%, 4.7 µM, 114 µM and 44.9%.
In the case of `Cl.N=C(NC(=N)N1CC=CC1)Nc1ccccc1` [Example 44, N1-1,2-dihydropyrrole-N5-phenyl biguanide hydrochloride], in the experiment with AMPK, the “AMPK activation effect (%) 10 μM” value is 289%, the “AMPK activation effect (%) 50 μM” value stood at 577% and the AC150 was 1.7 µM. In the experiment on HCT116 cells, the GI50 was more than 100 µM and the inhibition at 100 µM came out at 27.8%.
